Tests used:
[1] = tested on: PSC-derived neurons; assay: RNA-seq RNAge validation of age inducers in PSC-derived neurons; format: cell-based, human; details: 24 h, relative to DMSO, Vinorelbine 10 μM, AGK-2 0.04 μM
Description: Generation of human cortical neurons. Cortical neurons were generated by directed differentiation of human embryonic stem cells (H9; WA-09) maintained in E8 on vitronectin coated plates. […] After 24 h the E8 medium was replaced with E6 containing SB431542 (10 μM), LDN193189 (100 nM) and XAV939 ([…]). After three days the XAV939 was removed from the differentiation media and cells were cultured for an additional seven days in E6 containing SB431542 (10 μM), LDN193189 (100 nM). The neuroepithelium was maintained for an additional 10 days in neurobasal supplemented with N2 and B27. Media was changed daily throughout the differentiation. At DIV 20 the cultures were dissociated using Accutase to generate a single cell suspension and plated out for subsequent experiments in Neurobasal medium supplemented with B27, L-glutamine, BDNF, CAMP, ascorbic acid and GDNF (neural maintenance media). DAPT was also added to the culture medium from DIV20 to DIV30. Compounds for experimental validation of […]-based score. […] Reads were aligned to the hg19 Human transcripts using STAR (version 2.5.21b) using default parameters and resulting bam files were sorted and indexed using samtools. Gene counts were obtained using featureCounts (version 1.4.3) from sorted bam files using uniquely mapped reads. […] This score is calculated using the tissue-specific aging marker set Mk. […]

[2] = tested on: fetal human dermal fibroblasts (HDF-f); assay: RNA-seq RNAge validation of age inducers in fetal fibroblasts; format: cell-based; details: 24 h, relative to DMSO; for RNAge score (relative transcriptional age): Alvocidib 10 μM, 5-Iodotubercin 10 μM, Mitoxantrone 1.1 μM
Description: Fibroblast maintenance and culture. Fibroblasts were maintained in DMEM-F12 containing GlutaMAX,15% heat inactivated FBS and 1× Pen/Strep and passaged using Trypsin. For validation of […] aging score by RNA-seq old (GM04204; Coriell) or young (HDF-f; […] Compounds for experimental validation of […]-based score. All validation experiments were performed after 24 h of compound treatment. For rejuvenation experiments in fibroblasts Mocetinostat (10 μM; Selleck […]), Resveratrol (0.37 μM; Selleck […]) and Radicicol (1.1 μM; Tocris 1589), DMSO (1:1000) and EtOH (1:1000; vehicle control for Radicicol) were applied to old primary fibroblasts (Coriell GM4204). Age induction experiments in young fibroblasts (HDF-f; ScienCell #2300) were performed with 5-Iodotubercin (10 μM; Selleck […]), Alvocidib (10 μM; Selleck […]) and Mitoxantrone (1.1 μM; Selleck […]) with DMSO (1:1000) used as a control. Compounds used for age induction experiments in PSC-derived neurons were: […] Selleck […]) with DMSO (1:1000) used as a control. RNA Extraction. Cell were harvested, lysed, and stored in Trizol (Life Technologies) until further processing. For primary frontal cortex or substantia nigra a total of 10 mg of brain tissue from was lysed in Trizol aided by a tissue dounce. For experimental validation […] compounds RNA was extracted by the core using […] Micro Kit (QIAGEN 1071023). In all other cases RNA was extracted using the Zymo Direct-zol RNA Microprep Kit according to the manufacturer's instructions. RNA-seq analysis. Reads were aligned to the hg19 Human transcripts using STAR (version 2.5.21b) using default parameters and resulting bam files were sorted and indexed using samtools. Gene counts were obtained using featureCounts (version 1.4.3) from sorted bam files using uniquely mapped reads. Genes with no expression counts in any sample were discarded. Differential gene expression analysis was performed using DESeq2 R package that normalize gene count data to transcription per million (TPM), and then detect differentially expressed genes (DEG) between Young and Old groups with ([…] score calculation. The aging score is applied on a gene expression test data where two conditions are compared for expression changes in the aging signature, group1 has n samples and group2 has m samples. For each gene in a tissue specific marker set Ĝk, we can calculate t-statistic between two groups based on Welch's two-sample t test as follow: where the normalizing factor Nk is the number of overlapping genes between the test dataset and Ĝk. The aging score, Aging scorek, represents the overall magnitude of expression difference between two sample groups based on the expression trends. This score is calculated using the tissue-specific aging marker set Mk. It indicates the aging difference between the two groups as well as distinguishes which group is older. To mitigate the influence of a small number of markers with large changes gene expression between group1 and group2 of the test data (i.e. large t-score values), we introduced the “Percentage score” as a measure of agreement between the expression trends of the aging markers and the given dataset. The calculation of the Percentage score involves the product of each gene between Tk and Mk: Ai=ti×Li, where i∈Ĝk. A positive Ai indicates a consistent expression change of gene i in both the aging signature and in the comparison between group1 and group2 in the test dataset. Conversely, a negative Ai indicates an opposite expression trend. Therefore, the “Percentage score” is defined as: […]

[3] = tested on: HDF fibroblasts; assay: Hallmarks of age by high content microscopy in fibroblasts; format: cell-based, human; details: 24 h
Description: Compounds for experimental validation of L1000-based score. All validation experiments were performed after 24 h of compound treatment. For rejuvenation experiments in fibroblasts Mocetinostat (10 μM; Selleck S1396), Resveratrol (0.37 μM; Selleck S1396) and Radicicol (1.1 μM; Tocris 1589), DMSO (1:1000) and EtOH (1:1000; vehicle control for Radicicol) were applied to old primary fibroblasts (Coriell GM4204). Age induction experiments in young fibroblasts (HDF-f; ScienCell #2300) were performed with 5-Iodotubercin (10 μM; Selleck S8314), Alvocidib (10 μM; Selleck S1230) and Mitoxantrone (1.1 μM; Selleck S2485) with DMSO (1:1000) used as a control. Compounds used for age induction experiments in PSC-derived neurons were: Fludarabine (10 μM; Selleck S1491) Vinorelbine (10 μM; sc-205885) and AGK-2 (0.04 μM; Selleck S7577) with DMSO (1:1000) used as a control.
Assaying Hallmarks of Age by high content microscopy. HDF fibroblasts were plated at a density of 4500/cm^2 and cultured for 48 h before drug treatment. Neurons were plated at a density of 100,000/cm^2 and cultured for 12 days before the application of candidate age inducers. After 24 h of treatment culture wells were washed 2× in PBS then fixed with 4% paraformaldehyde. For immunocytochemistry cells were permeabilized in PBS+0.3% Triton and blocked in 5% normal goat serum. All antibody primary incubations were performed overnight at 4 degrees and secondary antibodies at RT for 1h. Primary antibodies used in this study were: BAG3 (abcam; ab47124), CAV1 (Thermo; MA3-600), H3K9me3 (abcam; ab176916), LAP2 (BD Bioscience; 611000), p21 (CST; 2947), yH2AX (EMD Millipore; 05-636). Immunocytochemistry images were acquired using an Operetta (PerkinElmer, Waltham, MA) microscope and quantified using the harmony high content analysis software. For both fibroblasts and neurons 4 independent batches of cells were assayed in triplicate (n=12). Fluorescence intensity was normalized to DMSO, and ordinary one-way ANOVA used to compare test conditions to the DMSO control (Prism 9.5.1). […]

[4] = tested on: old primary fibroblasts (Coriell GM04204); assay: RNA-seq RNAge validation of rejuvenating compounds in old primary fibroblasts; format: cell-based, human; details: 0.37 μM, 24 h
Description: Fibroblast maintenance and culture. Fibroblasts were maintained in DMEM-F12 containing GlutaMAX,15% heat inactivated FBS and 1× Pen/Strep and passaged using Trypsin. For validation of […] aging score by RNA-seq old (GM04204; Coriell) or young (HDF-f; […] Compounds for experimental validation of […]-based score. All validation experiments were performed after 24 h of compound treatment. For rejuvenation experiments in fibroblasts Mocetinostat (10 μM; Selleck […]), Resveratrol (0.37 μM; Selleck […]) and Radicicol (1.1 μM; Tocris 1589), DMSO (1:1000) and EtOH (1:1000; vehicle control for Radicicol) were applied to old primary fibroblasts (Coriell GM4204). Age induction experiments in young fibroblasts (HDF-f; ScienCell #2300) were performed with 5-Iodotubercin (10 μM; Selleck […]), Alvocidib (10 μM; Selleck […]) and Mitoxantrone (1.1 μM; Selleck […]) with DMSO (1:1000) used as a control. Compounds used for age induction experiments in PSC-derived neurons were: […] Selleck […]) with DMSO (1:1000) used as a control. RNA Extraction. […] Reads were aligned to the hg19 Human transcripts using STAR (version 2.5.21b) using default parameters and resulting bam files were sorted and indexed using samtools. Gene counts were obtained using featureCounts (version 1.4.3) from sorted bam files using uniquely mapped reads. […] This score is calculated using the tissue-specific aging marker set Mk. […]

SMILES | RNAge score / aging scores across the aging signatures [1] | pattern of induction of the RNAge subscores [2] | RNAge score (relative transcriptional age) [2] | nuclear area [3] | nuclear roundness [3] | BAG3 fluorescence intensity ([3]; relative to DMSO) | LAP2 fluorescence intensity ([3]; relative to DMSO) | other results
CCC1=C[C@@H]2CN(C1)Cc1c([nH]c3ccccc13)[C@@](C(=O)OC)(c1cc3c(cc1OC)N(C)[C@H]1[C@@](O)(C(=O)OC)[C@H](OC(C)=O)[C@]4(CC)C=CCN5CC[C@]31[C@@H]54)C2 [Vinorelbine] | only a slight, albeit consistent, induction |  |  |  |  |  |  | 
CN1CC[C@H](c2c(O)cc(O)c3c(=O)cc(-c4ccccc4Cl)oc23)[C@H](O)C1 [Alvocidib] |  | very similar pattern of induction | increased | increase | loss | decreased | loss | 
Oc1ccc(C=Cc2cc(O)cc(O)c2)cc1 [Resveratrol] |  |  |  |  |  |  |  | fibroblast aging score bubble size (percent of genes that change in the expected direction) [4]: very small bubble size
N#C/C(=C\c1ccc(-c2cc(Cl)ccc2Cl)o1)C(=O)Nc1cccc2ncccc12 [AGK-2] | no obvious transcriptional effect or impact |  |  |  |  |  |  | 
Nc1ncnc2c1c(I)cn2[C@@H]1O[C@H](CO)[C@@H](O)[C@H]1O [5-iodotubercin] |  | very similar pattern of induction | increased | increase | loss | decreased | loss | 
O=C1c2c(O)ccc(O)c2C(=O)c2c(NCCNCCO)ccc(NCCNCCO)c21 [Mitoxantrone] |  | only showed induced aging in the ‘Pan’ and ‘pF’ aging categories | increased |  | loss | decreased | loss | H3K9me3 immunoreactivity ([3]; relative to DMSO): decreased; p21 immunoreactivity ([3]; relative to DMSO): increased; γH2AX immunoreactivity ([3]; relative to DMSO): increased
